Experimental data taken from paper PMC11187126, “Structure and dynamics of the pyroglutamylated RF-amide peptide QRFP receptor GPR103” (Nature Communications, 2024).
Like-named read-outs stand apart in the source and are kept apart here. No end group written: not given here.

Target: T1, GPR103 Q125^3.32A (Homo sapiens, UniProt Q96P65, Q125A)
T1 construct: we used human full-length QRFPR-encoding plasmids; expressed in transfected cells; host or cells: HEK293 cells, pCAGGS vector
T1 sequence (Q96P65 1-431 Q125A): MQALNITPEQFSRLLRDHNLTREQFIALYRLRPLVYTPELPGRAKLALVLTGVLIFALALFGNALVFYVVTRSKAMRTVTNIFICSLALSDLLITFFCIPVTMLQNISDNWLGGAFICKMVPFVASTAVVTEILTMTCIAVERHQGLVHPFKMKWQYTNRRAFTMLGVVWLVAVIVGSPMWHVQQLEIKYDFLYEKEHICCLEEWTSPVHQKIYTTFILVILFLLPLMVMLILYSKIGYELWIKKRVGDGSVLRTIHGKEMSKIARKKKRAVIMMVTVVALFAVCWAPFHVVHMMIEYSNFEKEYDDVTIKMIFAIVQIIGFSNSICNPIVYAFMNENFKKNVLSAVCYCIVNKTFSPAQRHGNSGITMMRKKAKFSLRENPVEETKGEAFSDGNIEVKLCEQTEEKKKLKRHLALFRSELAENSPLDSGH
Assay: TGFα shedding assay; Exp. level WT (1:50)
Type: cell-based
Experimental: For the TGFα shedding assay and the flow cytometry analysis, we used human full-length QRFPR-encoding plasmids. Specifically, GPR103 was N-terminally modified with an HA signal sequence followed by a FLAG epitope and then a flexible linker ([…]; the FLAG epitope is underlined) and inserted into the pCAGGS vector. Plasmid encoding GPR103 mutants were generated using Quickchange Site-Directed Mutagensis kit (Agilent).
The TGFα shedding assay was performed as described previously with minor modifications. Plasmid transfection was performed in a 6-well plate with a mixture of 500 ng (per well in a 6-well plate) AP-TGFα-encoding plasmid and 200 ng GPR103-encoding plasmid. After 1-day culture, the transfected cells were harvested by trypsinization, pelleted by centrifugation at 190 × g for 5 min, and washed once with 5 mM HEPES (pH 7.4)-containing Hank’s Balanced Salt Solution (HBSS). After centrifugation, the cells were resuspended in 8 mL of the HEPES-containing HBSS. The cell suspension was seeded in a 96-well culture plate (cell plate) at a volume of 90 μL (per well hereafter) and incubated in a 37 °C incubator with 5% CO2 for 30 min. […] After spinning the cell plates at 190 × g for 2 min, 80 μL of conditioned media was transferred to an empty 96-well plate (conditioned media (CM) plate). Then, 80 μL of AP reaction solution (10 mM p-nitrophenylphosphate (p-NPP), 120 mM Tris-HCl (pH 9.5), 40 mM NaCl, and 10 mM MgCl2) was dispensed into the cell plates and the CM plates. Absorbance at 405 nm of the plates was measured using a microplate reader (SpectraMax 340 PC384, Molecular Devices) before and after 1-h incubation at room temperature. Ligand-induced AP-TGFα release was calculated by subtracting spontaneous AP-TGFα release signal from ligand-induced AP-TGFα release signal. The AP-TGFα release signals were fitted to a four-parameter sigmoidal concentration–response curve, using the Prism 10 software (GraphPad Prism). For each replicate experiment, the pEC50 parameter (negative logarithmic values of EC50 values) of the individual GPR103 mutants were normalized to that of the wild-type GPR103 performed in parallel, and resulting ∆pEC50 values were used to denote ligand response activity of the mutants. […]
Exp. le vel: WT (1:5 0)Exp. le vel: WT (1:5 0)Exp. le vel: WT (1:5 0)Exp. le vel: WT (1:2 0)Exp. le vel: WT (1:2 0)Exp. le vel: WT (1:1 0) […]
L1 4N - t e r mA F2 5N - t e r mA I 2 6N - t e r mA Y 2 9N - t e r mA C 9 82 .5 7A T10 22 .6 1A Exp . l eve l: WT (1 :5)Exp . l evel : >WT (1 :1)Exp. le vel: WT (1:2 0)Exp. le vel: WT (1:2 0)Exp. le vel: WT (1:5 0)Exp . l eve l: WT (1 :1) […]
Exp. le vel: WT (1:1 0)Exp. le vel: WT (1:2 0) C 1 1 83 .2 5AExp. le vel: WT (1:5 0)Exp. le vel: WT (1:5 0)Exp. le vel: WT (1:2 0)Exp . l eve l: WT (1 :5) […]
Exp. le vel: WT (1:5 0)Exp. le vel: WT (1:1 0)Exp. le vel: WT (1:5 0) E203ECL2AExp . l evel : >WT (1 :1)Exp. le vel: WT (1:5 0)Exp. le vel: WT (1:5 0) […]
Exp . l eve l: WT (1 :1) F28Exp. le vel: WT (1:5 0) C 2 8 56 .4 7AExp. le vel: WT (1:2 0) WExp. le vel: WT (1:2 0) F28Exp. le vel: WT (1:5 0)Exp . l evel : >WT (1 :1) […]
Exp. le vel: WT (1:5 0)Exp. le vel: WT (1:5 0) C 3 2 77 .4 8AExp . l eve l: WT (1 :5)Exp . l evel : >WT (1 :1)Exp . l evel : >WT (1 :1) […]
Suppl eme nt ary Figure 1 | Mutational analysis of GPR103. […]
mutants. Data are presented as mean values ± SEM, normally n=3-5; dots), each performed in triplicate. b-d Cell-surface expression (b) and QRFP26-in-duced activation of GPR103 (c, d) were analyzed by the flow cytometry and the TGFα shedding assay, respectively. From the concentration–response curves (a), Emax (c) and ΔpEC50 (d) values relative to the wild type were calculated. Colors in the mutant bars indicate an expression level matching to that of titrated wild type. Statistical analyses were performed using the ordinary one-way ANOVA followed by Dunnett tests with the expression-matched […]

Emax (Exp. #1): 46.53 % WT
Emax (Exp. #2): 25.38 % WT
Emax (Exp. #3): 32.41 % WT
Emax (mean, read-out: Emax): 34.8%
EC50 (n = 3): 282 nM
Emax (n = 3, read-out: Emax): 35.7 ± 5.1%
Substance: TSGPLGNLAEELNGYSRKKGGFSFRF-NH2 [QRFP26]
